≈ marks a conversion by molar mass, not a printed value. Like-named read-outs stand apart in the source and are kept apart here.
Experiments:
MRP1 = molecular target: T1, MRP1 (Homo sapiens, UniProt P33527); test: Daunorubicin accumulation in HL60/adr cells (MRP1-mediated drug efflux), flow cytometry; format: cell-based; conditions: 2 μg/ml daunorubicin, 90 minutes, FIG. 6
T1 construct: human cancer cell line HL60/adr, an MDR cell line characterized by MRP1 overexpression; endogenous in cells; host or cells: HL60/adr (human MDR cancer cell line)
From the text: MRP1 functions as a drug pump that unilaterally pumps the anticancer agents out of MDR cancer cells. Inhibition of MRP1 results in an increase of intracellular drug concentration within cancer cells.

HL60/adr = test: Reversal of MRP1-mediated drug resistance, MTT cytotoxicity of anticancer agents; format: cell-based, human; conditions: for IC50 (ng/ml) +Schisandrin B: anticancer agent in the presence of Schisandrin B (10 μg/ml); for IC50: Homo sapiens, HL60/ADR, 72 h
Protocol: Assays were carried out in triplicate against MDR cancer cell HL60/adr. MTT assays as described previously (X.

MCF7 = test: Enhancement of anticancer agent-induced apoptosis and necrosis, Anexin V-FITC/PI; format: cell-based, human; conditions: 48 hours; for Apoptotic + necrotic (%): MCF7, doxorubicin 0.5 μg/ml, Schisandrin B 20 μg/ml
Protocol: (§1) To illustrate the activities of Schisandrin B or its analogs enhancing the apoptosis of cancer cells induced by an anticancer agent according to the present disclosure, human cancer cell line SMMC7721, a non-drug-resistant hepatic cancer cell line, and MCF7, a non-drug-resistant breast cancer cell line, were selected for use. Assays were carried out in triplicates against SMMC7721 or MCF7. […] Cells were collected and the apoptotic cells and necrotic cell percentages were determined using Anexin V-FITC/PI kit (Sigma, St. Louis, Mo., USA) according to manufacturer's instructions. Alternatively, the apoptotic and necrotic cell percentages were measured using DNA Plus kit (Becton-Dickinson, USA) according to the manufacturer's instructions.

SMMC7721 = test: as above; format: cell-based, human; conditions: 48 hours; for Apoptotic(%) / Necrotic(%): doxorubicin 0.5 μg/ml
Protocol: as §1

[1] = test system: human leukemia MDR cell line K562/adr; test: Reversal of P-glycoprotein-mediated drug resistance by Schisandrin A, Schisandrol A, Schisantherin A, MTT cytotoxicity of anticancer agents; format: cell-based; conditions: for IC50: Homo sapiens, K562/Adr
Protocol: Assays were carried out in triplicate against human leukemia MDR cell line K562/adr, human breast cancer MDR cell line MCF7/adr, and human epidermoid carcinoma MDR cell line KBv200.

[2] = test system: human epidermoid carcinoma MDR cell line KBv200; test: cells; conditions: KBv200, 72 h
[3] = test system: human breast cancer MDR cell line MCF7/adr
[4] = test system: human breast cancer MDR cell line MCF7/adr; test: cells; conditions: NCI/ADR-RES, 72 h
MCF7/adr = test: Reversal of drug resistance by ethanol extracts of Schisandra chinensis fruit, MTT cytotoxicity of anticancer agents
K562/adr = test: as above; format: cell-based, human
Protocol: Assays were carried out in triplicate against human MDR cancer cell lines K562/adr, KBv200, and MCF7/adr. […] Alternatively, flow cytometry assays using FACS Calibur equipped with software Cellquest 3.1f (Becton-Dickinson, Holbrook, N.J.) were applied to count the cell numbers in each sample.

[5] = test system: human epidermoid carcinoma MDR cell line KBv200
[6] = Schisandrin B 20 μg/ml with doxorubicin 0.5 μg/ml
[7] = SMMC7721, Schisandrin B 20 μg/ml
[8] = HL60/adr, by Schisandrin B (10 μg/ml)
[9] = read-out: IC50 (ng/ml) −Schisandrin A
[10] = read-out: IC50 (ng/ml) −Schisantherin A
[11] = anticancer agent in the presence of Schisandrin A (10 μg/ml), 72 hours
[12] = anticancer agent in the presence of Schisantherin A (10 μg/ml), 72 hours

T1 sequence (P33527 whole entry): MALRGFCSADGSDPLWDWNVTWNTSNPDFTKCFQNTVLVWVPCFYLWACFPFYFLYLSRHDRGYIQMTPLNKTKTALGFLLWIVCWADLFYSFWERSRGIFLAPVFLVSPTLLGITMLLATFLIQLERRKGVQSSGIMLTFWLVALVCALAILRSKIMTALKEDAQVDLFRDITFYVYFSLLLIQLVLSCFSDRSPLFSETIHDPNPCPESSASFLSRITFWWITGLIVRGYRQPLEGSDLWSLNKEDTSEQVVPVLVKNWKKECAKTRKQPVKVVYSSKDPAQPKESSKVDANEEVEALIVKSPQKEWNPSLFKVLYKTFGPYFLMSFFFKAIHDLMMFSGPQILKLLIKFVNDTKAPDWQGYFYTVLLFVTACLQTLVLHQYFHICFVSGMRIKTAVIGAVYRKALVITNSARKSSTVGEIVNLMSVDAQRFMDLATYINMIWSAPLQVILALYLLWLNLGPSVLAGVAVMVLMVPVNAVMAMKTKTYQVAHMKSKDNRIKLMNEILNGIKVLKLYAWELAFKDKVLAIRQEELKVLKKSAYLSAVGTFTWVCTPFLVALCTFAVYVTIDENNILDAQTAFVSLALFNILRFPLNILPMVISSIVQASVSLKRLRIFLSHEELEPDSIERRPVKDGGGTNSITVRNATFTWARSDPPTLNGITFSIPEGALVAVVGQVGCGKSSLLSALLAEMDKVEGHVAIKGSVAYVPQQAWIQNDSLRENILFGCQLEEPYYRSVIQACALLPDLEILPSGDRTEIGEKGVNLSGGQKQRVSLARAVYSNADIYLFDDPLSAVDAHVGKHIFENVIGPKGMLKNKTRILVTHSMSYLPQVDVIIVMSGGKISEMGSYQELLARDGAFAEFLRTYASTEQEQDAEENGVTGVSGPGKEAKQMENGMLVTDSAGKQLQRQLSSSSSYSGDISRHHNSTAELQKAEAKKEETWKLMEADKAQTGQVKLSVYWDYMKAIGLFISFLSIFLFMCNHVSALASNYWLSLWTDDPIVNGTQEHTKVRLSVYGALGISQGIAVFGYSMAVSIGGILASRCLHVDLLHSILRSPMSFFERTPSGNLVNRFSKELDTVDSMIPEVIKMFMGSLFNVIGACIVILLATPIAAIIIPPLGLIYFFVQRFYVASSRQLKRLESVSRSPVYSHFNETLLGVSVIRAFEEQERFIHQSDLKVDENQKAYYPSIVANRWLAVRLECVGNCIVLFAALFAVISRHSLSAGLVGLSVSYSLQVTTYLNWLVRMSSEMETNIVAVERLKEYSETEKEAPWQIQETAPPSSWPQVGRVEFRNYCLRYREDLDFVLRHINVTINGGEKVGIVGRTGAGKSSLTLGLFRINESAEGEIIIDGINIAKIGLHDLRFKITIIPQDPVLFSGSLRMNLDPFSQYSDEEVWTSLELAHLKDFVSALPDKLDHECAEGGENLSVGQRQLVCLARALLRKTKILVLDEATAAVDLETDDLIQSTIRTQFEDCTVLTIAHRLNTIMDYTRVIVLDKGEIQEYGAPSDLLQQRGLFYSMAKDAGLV

`COc1cc2c(c(OC)c1OC)-c1c(cc3c(c1OC)OCO3)C[C@@H](C)[C@@H](C)C2` [Schisandrin B] was tested, and the “daunorubicin accumulation within HL60/adr cells (in words)” value (MRP1) was “increased proportionately with increasing concentration”, the “daunorubicin accumulation in HL60/adr cells versus absence of Schisandrin B” value (MRP1; Schisandrin B 20 μg/ml) was 4 folds and the “RF (reversal folds of vincristine resistance)” value (HL60/adr; HL60/adr, Schisandrin B 10 μg/ml) was ~10.5. For the same compound, the “RF (reversal folds of vincristine resistance)” value (HL60/adr; HL60/adr, Schisandrin B 20 μg/ml) was >42, the “drug sensitivity of HL60/adr toward the anticancer agents (in words)” value (HL60/adr; compound 10 μg/ml) was “enhanced” and the “Apoptotic + necrotic (%)” value (MCF7) was 1.9 ± 0.1%. The “apoptosis and necrosis of MCF7 induced by doxorubicin (in words)” value (MCF7; [6]) was “significantly enhanced”, the “Apoptotic(%)” value (SMMC7721; [7]) was 2.4 ± 2.1% and the “Necrotic(%)” value (SMMC7721; [7]) was 1.5 ± 0.9%. The “Apoptotic + necrotic (%)” value (SMMC7721; SMMC7721, vincristine 0.5 μg/ml, Schisandrin B 20 μg/ml) was 2.6 ± 0.4%, the “apoptosis and necrosis of SMMC7721 cells induced by doxorubicin (in words)” value (SMMC7721; [6]) was “significantly enhanced” and the “apoptosis and necrosis of SMMC7721 induced by vincristine (in words)” value (SMMC7721; Schisandrin B 20 μg/ml with vincristine 0.5 μg/ml) was “significantly enhanced”.
For `CC(=O)O[C@H]1C(=O)[C@@]2(C)[C@H]([C@H](OC(=O)c3ccccc3)[C@]3(O)C[C@H](OC(=O)[C@H](O)[C@@H](NC(=O)c4ccccc4)c4ccccc4)C(C)=C1C3(C)C)[C@]1(OC(C)=O)CO[C@@H]1C[C@@H]2O` [Taxol], the “IC50 (ng/ml) +Schisandrin A” value (HL60/adr; HL60/adr, anticancer agent in the presence of Schisandrin A (10 μg/ml), 72 hours) was 4.1 ± 1.4 ng/mL, the “IC50 (ng/ml) +Schisandrin B” value (HL60/adr; HL60/adr, 72 hours) was <1 ng/mL and the “IC50 (ng/ml) +Schisantherin A” value (HL60/adr; HL60/adr, anticancer agent in the presence of Schisantherin A (10 μg/ml), 72 hours) was 4.3 ± 1.4 ng/mL. For the same compound, the “RF (reversal folds of drug resistance)” value (HL60/adr; HL60/adr, by Schisandrin A (10 μg/ml)) was 7.8, the “RF (reversal folds of drug resistance)” value (HL60/adr; [8]) was >3 and the “RF (reversal folds of drug resistance)” value (HL60/adr; HL60/adr, by Schisantherin A (10 μg/ml)) was 7.4. It also gave an IC50 (HL60/adr; HL60/adr, anticancer agent in the absence of Schisandrin A, 72 hours, read-out: IC50 (ng/ml) −Schisandrin A) of 32 ± 9 ng/mL, an IC50 (HL60/adr; HL60/adr, anticancer agent in the absence of Schisandrin B, 72 hours, read-out: IC50 (ng/ml) −Schisandrin B) of 3 ng/mL and an IC50 (HL60/adr; HL60/adr, anticancer agent in the absence of Schisantherin A, 72 hours, read-out: IC50 (ng/ml) −Schisantherin A) of 32 ± 9 ng/mL. For the same compound, the IC50 ([1]; 72 h, K562/adr, anticancer agent in the absence of Schisandrin A, 72 hours, read-out: IC50 (ng/ml) −Schisandrin A) was 38 ± 11 ng/mL, the IC50 ([1]; 72 h, K562/adr, anticancer agent in the absence of Schisantherin A, 72 hours, read-out: IC50 (ng/ml) −Schisantherin A) was 38 ± 12 ng/mL and the “IC50 (ng/ml) +Schisandrin A” value ([1]; K562/adr, anticancer agent in the presence of Schisandrin A (10 μg/ml), 72 hours) was 6.4 ± 3.2 ng/mL. The “IC50 (ng/ml) +Schisantherin A” value ([1]; K562/adr, anticancer agent in the presence of Schisantherin A (10 μg/ml), 72 hours) was 1.1 ± 1.0 ng/mL, the “RF (reversal folds of drug resistance)” value ([1]; K562/adr, by Schisandrin A (10 μg/ml)) was 5.9 and the “RF (reversal folds of drug resistance)” value ([1]; K562/adr, by Schisantherin A (10 μg/ml)) was 34.5. For the same compound, the IC50 [2, 9] was 20.2 ± 2.8 ng/mL (≈ 0.0237 µM), the IC50 [2, 10] was 20.2 ± 3.8 ng/mL (≈ 0.0237 µM) and the “IC50 (ng/ml) +Schisandrin A” value [3, 11] was 6.1 ± 1.9 ng/mL. For the same compound, the “IC50 (ng/ml) +Schisantherin A” value [3, 12] was 6.3 ± 3.1 ng/mL, the “RF (reversal folds of drug resistance)” value ([3]; by Schisandrin A (10 μg/ml)) was 6.6 and the “RF (reversal folds of drug resistance)” value ([3]; by Schisantherin A (10 μg/ml)) was 6.4. The IC50 [4, 9] was 40.5 ± 11 ng/mL (≈ 0.0474 µM), the IC50 [4, 10] was 40.6 ± 20.3 ng/mL (≈ 0.0475 µM) and the IC50 (MCF7/adr; Homo sapiens, NCI/ADR-RES, 72 h, read-out: IC50 (ng/ml) −ethanol extract) was 73 ± 27 ng/mL. The “IC50 (ng/ml) +ethanol extract” value (MCF7/adr; MCF7/adr, anticancer agent in the presence of ethanol extracts (50 μg/ml), 72 hours) was 25 ± 12 ng/mL, the “RF (reversal folds of drug resistance)” value (MCF7/adr; MCF7/adr, by ethanol extracts (50 μg/ml)) was 2.9 and the IC50 (K562/adr; Homo sapiens, anticancer agent in the absence of ethanol extracts, 72 hours, read-out: IC50 (ng/ml) −ethanol extract) was 110 ± 20 ng/mL. The “IC50 (ng/ml) +ethanol extract” value (K562/adr; anticancer agent in the presence of ethanol extracts (50 μg/ml), 72 hours) was 41 ± 24 ng/mL, the “RF (reversal folds of drug resistance)” value (K562/adr; by ethanol extracts (50 μg/ml)) was 2.7 and the “IC50 (ng/ml) +Schisandrin A” value [5, 11] was 1.91 ± 1.2 ng/mL. For the same compound, the “IC50 (ng/ml) +Schisantherin A” value [5, 12] was 2.4 ± 0.7 ng/mL, the “RF (reversal folds of drug resistance)” value ([5]; by Schisandrin A (10 μg/ml)) was 10.6 and the “RF (reversal folds of drug resistance)” value ([5]; by Schisantherin A (10 μg/ml)) was 8.4.
For `COc1cc([C@@H]2c3cc4c(cc3[C@@H](O[C@@H]3O[C@@H]5CO[C@@H](C)O[C@H]5[C@H](O)[C@H]3O)[C@H]3COC(=O)[C@H]23)OCO4)cc(OC)c1O` [VP-16], the “IC50 (ng/ml) −Schisandrin B” value (HL60/adr; HL60/adr, anticancer agent in the absence of Schisandrin B, 72 hours) was >10000 ng/mL, the “IC50 (ng/ml) +Schisandrin B” value (HL60/adr; HL60/adr, 72 hours) was 1490 ± 213 ng/mL and the “RF (reversal folds of drug resistance)” value (HL60/adr; [8]) was >6.7.
For `COc1cccc2c1C(=O)c1c(O)c3c(c(O)c1C2=O)C[C@@](O)(C(=O)CO)C[C@@H]3O[C@H]1C[C@H](N)[C@H](O)[C@H](C)O1` [doxorubicin], the “Apoptotic + necrotic (%)” value (MCF7) was 7.2 ± 0.8%, the “Apoptotic(%)” value (SMMC7721; [7]) was 5.2 ± 2.6% and the “Necrotic(%)” value (SMMC7721; [7]) was 16.5 ± 4.3%. It also gave an IC50 ([1]; read-out: IC50 of doxorubicin toward K562/adr, in the absence of Schisandrol A) of 875 ± 248 ng/mL and an IC50 ([1]; read-out: IC50 of doxorubicin toward K562/adr, in the presence of Schisandrol A (10 μg/ml)) of 168 ± 43 ng/mL.
